Experimental data from US6825348B2, “Antiviral compounds” (Academia Sinica, priority 2002, dated 2004).
≈ marks a conversion by molar mass, not a printed value. Read-outs that look alike come from different tables or passages of the source.

Assays:
[1] = target: T1, calf mucosal adenosine deaminase (ADA, EC 3.5.4.4) (Bos taurus, UniProt P56658); experiment: Substrate activity and competitive inhibition of adenosine deaminase; assay type: biochemical; conditions: for type of ADA inhibition in words: ara-A used as substrate; for rel. Vmax: compound as ADA substrate, relative to ara A 3 = 1.0; for Ki: inhibition of ADA with ara-A 3 as substrate
T1 sequence (P56658 1-363): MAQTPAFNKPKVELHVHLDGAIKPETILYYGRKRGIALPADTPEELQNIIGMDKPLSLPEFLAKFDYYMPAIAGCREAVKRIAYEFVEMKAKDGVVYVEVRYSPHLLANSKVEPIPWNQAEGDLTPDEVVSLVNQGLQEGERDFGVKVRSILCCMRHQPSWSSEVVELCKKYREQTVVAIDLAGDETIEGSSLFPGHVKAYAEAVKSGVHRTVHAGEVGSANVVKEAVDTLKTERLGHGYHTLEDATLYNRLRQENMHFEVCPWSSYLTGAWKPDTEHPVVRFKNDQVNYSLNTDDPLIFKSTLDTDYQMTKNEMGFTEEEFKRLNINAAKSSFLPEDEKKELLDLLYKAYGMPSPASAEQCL

[2] = system: Vero cell thymidine kinase; experiment: Phosphorylation of nucleosides by Vero cell thymidine kinase; assay type: biochemical; conditions: for Km: apparent Km, 37° C., pH 7.5; for rel. Vmax, Vero cell thymidine kinase: relative to thymidine = 1.0 × 10^2
[3] = system: thymidine kinase-deficient (TK−) varicella-zoster virus (YS/R); experiment: microbe, parasite or virus in culture; assay type: cell-based; conditions: Human alphaherpesvirus 3, Vero, read-out: IC50 TK−VZV (YS/R)
[4] = system: Vero cells; conditions: African green monkey
[5] = system: herpes simplex type 1 virus (HSV-1) (KOS); experiment: Inhibition of HSV-1 cytopathogenicity in Vero cell culture; assay type: cell-based; conditions: Human alphaherpesvirus 1, Vero, read-out: IC50 HSV-1 (KOS)
[6] = target: HSV thymidine kinase (Human herpesvirus 1, UniProt P0DTH5); experiment: Phosphorylation of nucleosides by HSV thymidine kinase; assay type: biochemical
Chain of HSV thymidine kinase (P0DTH5 whole entry, looked up): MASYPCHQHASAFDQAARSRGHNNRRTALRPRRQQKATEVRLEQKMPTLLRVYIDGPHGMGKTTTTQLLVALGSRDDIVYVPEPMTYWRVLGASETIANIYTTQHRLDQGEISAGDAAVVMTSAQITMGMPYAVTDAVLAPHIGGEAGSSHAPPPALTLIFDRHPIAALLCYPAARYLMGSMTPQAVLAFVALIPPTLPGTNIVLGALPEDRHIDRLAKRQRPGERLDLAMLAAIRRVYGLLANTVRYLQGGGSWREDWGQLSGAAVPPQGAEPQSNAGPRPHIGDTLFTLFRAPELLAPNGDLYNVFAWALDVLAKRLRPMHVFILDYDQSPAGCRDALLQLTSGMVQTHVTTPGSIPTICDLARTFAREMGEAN

[7] = system: human cytomegalovirus (AD-169); experiment: Inhibition of HCMV cytopathogenicity in Vero cell culture; assay type: cell-based; conditions: Human betaherpesvirus 5, AD169; Vero cell culture; 50% inhibition of cytopathogenicity; for 1:1 mixtures IC50 refers to known antiviral drugs; read-out: IC50 HCMV (AD-169)
[8] = Lipophilicity, 1-octanol/water partition coefficient; conditions: 1-octanol/water (0.10 M phosphate buffer)
[9] = Solubility in water (phosphate buffer, UV absorbance); conditions: phosphate buffer, pH 6.8, aqueous buffer, thermodynamic from solid
[10] = system: HeLa cells; conditions: human
[11] = system: thymidine kinase-positive (TK+) varicella-zoster virus (YS); experiment: Inhibition of TK+ VZV cytopathogenicity in Vero cell culture; assay type: cell-based
[12] = system: HSV-1 (KOS); experiment: Anti-HSV-1 activity in vivo, HSV-1-induced mortality in NMRI mice; conditions: 6 days; for mean day of animal death / mean day of symptom initiation: terminated day 21; for responders at 100 mg/kg / responders at 150 mg/kg / responders at 250 mg/kg: Human alphaherpesvirus 1, ip, 504 h; for protection against HSV-induced mortality: 150 mg/kg dose level i.p.
[13] = LD50 and toxicity in mice, intraperitoneal
[14] = system: MT4 cells; experiment: Toxicity toward MT4 cells
[15] = system: HIV-1 (IIIB); experiment: microbe, parasite or virus in culture; assay type: cell-based; conditions: Human immunodeficiency virus 1, IIIB; MT4 cells, average of duplicates; read-out: IC50 HIV-1 (IIIB)
[16] = system: HIV-2 (LAV-2); experiment: Inhibition of HIV-2 cytopathogenicity in MT4 cells; assay type: cell-based, human immunodeficiency virus; conditions: Human immunodeficiency virus 2; MT4 cells, average of duplicates; read-out: IC50 HIV-2 (LAV-2)
[17] = system: moloney murine sarcoma virus (MSV); experiment: Inhibition of MSV cytopathogenicity in CEM cells (cell-protection assay); assay type: cell-based; conditions: Moloney murine sarcoma virus, CCRF-CEM; CEM cells, average of duplicates; read-out: IC50 MSV
[18] = system: CEM cells; experiment: Toxicity toward CEM cells
[19] = mixture with acyclovir 2 (w/w=1:1)
[20] = 100 mg/kg/day i.p., read-out: percentage of HSV-1-infected mice alive at day 21 postinfection
[21] = 100 mg/kg/day i.p., read-out: percentage of HSV-1-infected mice without symptoms at day 21 postinfection
[22] = 150 mg/kg/day i.p., read-out: percentage of HSV-1-infected mice alive at day 21 postinfection
[23] = 150 mg/kg/day i.p., read-out: percentage of HSV-1-infected mice without symptoms at day 21 postinfection
[24] = 250 mg/kg/day i.p., read-out: percentage of HSV-1-infected mice alive at day 21 postinfection
[25] = 250 mg/kg/day i.p., read-out: percentage of HSV-1-infected mice without symptoms at day 21 postinfection

Compound | Km [2] [mM] | rel. Vmax, Vero cell thymidine kinase [2] | IC50 [3] [µg/mL] | Vero cell, concentration causing microscopically visible change or disruption in about 50% of the cell sheet [4] [µg/mL] | IC50 [5] [µg/mL] | rel. Vmax, HSV thymidine kinase [6] | IC50 [7] [µg/mL] | logP at […] [8] | solubility at 20 h [9] [µg/mL] | HeLa cell, concentration causing microscopically visible change or disruption in about 50% of the cell sheet [10] [µg/mL] | IC50 TK+VZV (YS) [11] [µg/mL] | mean day of animal death ([12]; 100 mg/kg/day i.p.) [days] | mean day of symptom initiation ([12]; 100 mg/kg/day i.p.) [days] | mean day of animal death ([12]; 150 mg/kg/day i.p.) [days] | mean day of symptom initiation ([12]; 150 mg/kg/day i.p.) [days] | mean day of animal death ([12]; 250 mg/kg/day i.p.) [days] | mean day of symptom initiation ([12]; 250 mg/kg/day i.p.) [days] | responders at 100 mg/kg [12, 20] [%] | responders at 100 mg/kg [12, 21] [%] | responders at 150 mg/kg [12, 22] [%] | other results
Nc1ncnc2c1ncn2COCCO [Compound 1, 9-[(2-Hydroxyethoxy)methyl]adenine, reference compound] | > 30 | <3.0 | 9 (≈ 43 µM) | 209 | 4.5 (≈ 21.5 µM) | <3.0 | 4.8 (≈ 22.9 µM) | 0.98 | 2560 (≈ 12200 µM) | 196 | 7.0 (≈ 33.5 µM) |  |  |  |  |  |  |  |  |  | ADA substrate / inhibitor property in words [1]: functioned as ADA substrates; type of ADA inhibition in words [1]: competitive inhibition; rel. Vmax [1]: 1.48 × 10^−2; Ki [1]: 141 µM; effect on the rate of phosphorylation of acyclovir 2 in words [6, 19]: did not induce any increase
Nc1nc2ncn(COCCO)c2c(=O)[nH]1 [Compound 9, 7-[(2-Hydroxyethoxy)methyl]guanine] | 0.0183 | 12.0 | 38 (≈ 169 µM) | 99 | 1.1 (≈ 4.88 µM) | 28.0 | 16 (≈ 71 µM) | -0.6 | 320 (≈ 1420 µM) | 114 | 13 (≈ 57.7 µM) | 14.1 ± 0.8 | 10.9 ± 0.6 | 16.0 ± 1.5 | 13.0 ± 1.1 | 18.5 ± 1.0 | 15.1 ± 1.2 | 66 | 48 | 78 | responders at 150 mg/kg [12, 23]: 57%; responders at 250 mg/kg [12, 24]: 90%; responders at 250 mg/kg [12, 25]: 67%
Nc1ncnc2ncn(COCCO)c12 [Compound 14, 7-[(2-Hydroxyethoxy)methyl]adenine] | > 30 | <3.0 | 0.97 (≈ 4.64 µM) | 496 | 0.58 (≈ 2.77 µM) | <3.0 | 1 (≈ 4.78 µM) | 1.24 | 4710 (≈ 22500 µM) | 472 | 1.1 (≈ 5.26 µM) | 19.8 ± 1.7 | 17.5 ± 2.1 | >21 | 19.9 ± 1.3 | >21 | >21 | 95 | 80 | 100 | ADA substrate / inhibitor property in words [1]: functioned as ADA substrates; type of ADA inhibition in words [1]: competitive inhibition; rel. Vmax [1]: 1.50 × 10^−6; Ki [1]: 8.3 µM; LD50 ([13]; NMRI, mouse, in vivo, ip): 950 mg/kg; level up to which no toxicity was shown ([13]; mice, intraperitoneal): 400 mg/kg; protection against HSV-induced mortality [12]: full protection; responders at 150 mg/kg [12, 23]: 88%; responders at 250 mg/kg [12, 24]: 100%; responders at 250 mg/kg [12, 25]: 100%; increase on the rate of phosphorylation of acyclovir 2 by HSV thymidine kinase [6, 19]: 2 fold
Nc1nc2c(ncn2CCOCP(=O)(O)O)c(=O)[nH]1 [PMEG 27, 9-[2-(phosphonomethoxy)ethyl]guanine, reference compound] |  |  | 0.06 (≈ 0.207 µM) | 7.0 | 4.6 (≈ 15.9 µM) |  | 0.35 (≈ 1.21 µM) | 0.14 | 360 (≈ 1240 µM) | 9.1 | 0.040 (≈ 0.138 µM) |  |  |  |  |  |  |  |  |  | MT4 cell, concentration reducing the number of viable uninfected cells by 50% [14]: 16 µg/mL; IC50 [15]: 16 µg/mL (≈ 55.3 µM); IC50 [16]: 18 µg/mL (≈ 62.2 µM); IC50 [17]: 0.19 µg/mL (≈ 0.657 µM); CEM cell, concentration reducing the number of viable uninfected cells by 50% [18]: 12 µg/mL
Nc1nc2c(ncn2COCCO)c(=O)[nH]1 [acyclovir 2, 9-[(2-hydroxyethoxy)methyl]guanine, reference compound] | 22 | <3.0 |  | 269 | 0.46 (≈ 2.04 µM) | 39.2 | 32 (≈ 142 µM) | -0.48 | 400 (≈ 1780 µM) | 259 |  | 18.9 ± 2.1 | 15.6 ± 1.6 | >21 | 19.1 ± 1.3 | >21 | >21 | 80 | 65 | 100 | protection against HSV-induced mortality [12]: full protection; responders at 150 mg/kg [12, 23]: 86%; responders at 250 mg/kg [12, 24]: 100%; responders at 250 mg/kg [12, 25]: 100%
Cc1cn([C@H]2C[C@H](O)[C@@H](CO)O2)c(=O)[nH]c1=O [thymidine] | 0.001 | 1.0 × 10^2 |  |  |  |  |  |  |  |  |  |  |  |  |  |  |  |  |  |  | 
